Read-outs that look alike come from different tables or passages of the source.
How the values were obtained:
α-adrenergic [1] = molecular target: T1, α-adrenergic (Rattus norvegicus, UniProt P23944); test: α-adrenergic blocking activity, norepinephrine-induced contraction of helically cut rat aortic strip; conditions: 37° C., cumulative doses, read-out: IC50 (concentration causing 50% relaxation)
T1 construct: helically cut rat aortic strip; from tissue; host or cells: rat aorta (helically cut strip)
T1 sequence (P23944 1-561): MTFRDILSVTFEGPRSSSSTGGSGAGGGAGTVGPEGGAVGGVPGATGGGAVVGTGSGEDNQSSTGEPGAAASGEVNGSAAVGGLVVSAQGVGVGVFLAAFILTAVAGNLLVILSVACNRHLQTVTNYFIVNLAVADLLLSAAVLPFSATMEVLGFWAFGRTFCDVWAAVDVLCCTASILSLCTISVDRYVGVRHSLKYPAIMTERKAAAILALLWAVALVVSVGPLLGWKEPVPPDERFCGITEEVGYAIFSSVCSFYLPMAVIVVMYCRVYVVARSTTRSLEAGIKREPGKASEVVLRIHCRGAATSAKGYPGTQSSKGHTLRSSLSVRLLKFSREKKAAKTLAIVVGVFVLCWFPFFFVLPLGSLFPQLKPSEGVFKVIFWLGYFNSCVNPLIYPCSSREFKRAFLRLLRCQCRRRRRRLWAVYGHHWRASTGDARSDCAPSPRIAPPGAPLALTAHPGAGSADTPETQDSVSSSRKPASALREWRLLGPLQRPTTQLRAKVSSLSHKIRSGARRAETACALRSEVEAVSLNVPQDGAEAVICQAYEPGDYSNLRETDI
Method: a) The α-adrenergic blocking activity of the compounds was tested using a helically cut rat aortic strip in a Krebs-Henselheit solution at 37° C., bubbled with a mixture of 95% O2 and 5% CO2. Norepinephrine induced contractions were detected isometrically. The compounds were added in cumulative doses and the relaxing activity was expressed in per cents of the maximum norepinephrine contraction.

α-adrenergic [2] = test: α-adrenergic blocking activity, postdecapitation muscular contractions in rats; format: in vivo, rat; conditions: i.v., 4.6 mg/kg, 30 minutes prior to decapitation
Method: b) The α-adrenergic blocking activity of compounds VUFB 17951 and VUFB 17959 was also shown in the test of influencing the postdecapitation muscular contractions in rats. The test compounds were administered intravenously in the dose of 4.6 mg/kg for VUFB 17951 and […] for VUFB 17959.

blood pressure [3] = test: Hypotensive activity, pentobarbital anaesthesized dogs; format: in vivo, dog
From the text: b) The blood pressure of pentobarbital anaesthesized dogs was registered invasively in arteria femoralis. The average decrease in systolic (SBP) arid diastolic (DBP) blood pressure expressed in per cents of the starting blood pressure level after intravenous and oral administration is shown in Tables 5 and 6.

blood pressure [4] = test: Hypotensive activity, conscious monkeys; format: in vivo, Macaca mulatta
Method: c) The blood pressure of conscious monkeys (Macaca mulatta) was measured non-invasively on the arm. The average decrease in systolic (SBP) and diastolic (DBP) blood pressure after intravenous and oral administration was expressed in per cents of the starting blood pressure.

[5] = system: rat peripheral venous thrombosis; test: Antithrombotic activity, rat peripheral venous thrombosis in closed abdominal part of vena cava; format: in vivo; conditions: rats, read-out: statistically significant effective dose (mass of thrombi)
Method: The antithrombotic activity of the test compounds was established using the model of rat peripheral venous thrombosis in a closed abdominal part of vena cava. The thrombus was induced by intravenous administration of hypotonic solution of sodium chloride. The thrombus was freed 10 minutes after induction and weighted. The mass of thrombi in control animals was compared to the mass of thrombi of animals administered by the test compound. The statistically significant effective dose for compound VUFB 17951 was 0.5 mg/kg intravenously and 5 mg/kg orally and for the compound VUFB 17959 0.25 mg/kg and 1.0 mg/kg, respectively. The corresponding dose of a standard (Cilostazol, generic name, Merck index, 11th Edition, 2277) was 25 mg/kg orally.

[6] = system: urinary bladder sphincter; test: Effect on the opening pressure of the urinary bladder sphincter; format: in vivo, rat; conditions: rats, compared with prazosin or terazosin
intraocular pressure = test: Effect on the intraocular pressure; format: in vivo, rabbit; conditions: rabbits, topical intraocular administration
[7] = i.v., 0.46 mg/kg, value 1 of 5 (heads 5/30/60/180 min; probably 1 min)
[8] = i.v., 0.46 mg/kg, value 2 of 5 (heads 5/30/60/180 min; probably 5 min)
[9] = i.v., 0.46 mg/kg, value 3 of 5 (heads 5/30/60/180 min; probably 30 min)
[10] = i.v., 0.46 mg/kg, value 4 of 5 (heads 5/30/60/180 min; probably 60 min)
[11] = i.v., 0.46 mg/kg, value 5 of 5 (heads 5/30/60/180 min; probably 180 min)
[12] = i.v., 4.6 mg/kg, value 1 of 5 (heads 5/30/60/180 min; probably 1 min)
[13] = i.v., 4.6 mg/kg, value 2 of 5 (heads 5/30/60/180 min; probably 5 min)
[14] = i.v., 4.6 mg/kg, value 3 of 5 (heads 5/30/60/180 min; probably 30 min)
[15] = i.v., 4.6 mg/kg, value 4 of 5 (heads 5/30/60/180 min; probably 60 min)
[16] = i.v., 4.6 mg/kg, value 5 of 5 (heads 5/30/60/180 min; probably 180 min)

## COc1ccc(C(C#N)(CCCNCC2COc3ccccc3O2)C(C)C)cc1OC (racemic) [VUFB 17951, 5-(2,3-Dihydro-1,4-benzodioxin-2-ylmethylamino)-2-(3,4-dimethoxyphenyl)-2-isopropyl valeronitrile]
α-adrenergic [1]
  IC50: 6 µM
α-adrenergic [2]
  decrease in number of postdecapitation contractions: highly significant decrease in number of postdecapitation contractions
Blood pressure [3]; [7]
  decrease in diastolic blood pressure (DBP): -52 per cents
  decrease in systolic blood pressure (SBP): -46 per cents
Blood pressure [3]; [8]
  decrease in diastolic blood pressure (DBP): -46 per cents
  decrease in systolic blood pressure (SBP): -47 per cents
Blood pressure [3]; [9]
  decrease in diastolic blood pressure (DBP): -40 per cents
  decrease in systolic blood pressure (SBP): -41 per cents
Blood pressure [3]; [10]
  decrease in diastolic blood pressure (DBP): -36 per cents
  decrease in systolic blood pressure (SBP): -41 per cents
Blood pressure [3]; [11]
  decrease in diastolic blood pressure (DBP): -28 per cents
  decrease in systolic blood pressure (SBP): -26 per cents
Blood pressure [3]; [12]
  decrease in diastolic blood pressure (DBP): -53 per cents
  decrease in systolic blood pressure (SBP): -46 per cents
Blood pressure [3]; [13]
  decrease in diastolic blood pressure (DBP): -49 per cents
  decrease in systolic blood pressure (SBP): -48 per cents
Blood pressure [3]; [14]
  decrease in diastolic blood pressure (DBP): -47 per cents
  decrease in systolic blood pressure (SBP): -42 per cents
Blood pressure [3]; [15]
  decrease in diastolic blood pressure (DBP): -42 per cents
  decrease in systolic blood pressure (SBP): -40 per cents
Blood pressure [3]; [16]
  decrease in diastolic blood pressure (DBP): -34 per cents
  decrease in systolic blood pressure (SBP): -31 per cents
Blood pressure [3]; p.o., 4.6 mg/kg, 15 min
  decrease in diastolic blood pressure (DBP): -9 per cents
  decrease in systolic blood pressure (SBP): -9 per cents
Blood pressure [3]; p.o., 4.6 mg/kg, 30 min
  decrease in diastolic blood pressure (DBP): -11 per cents
  decrease in systolic blood pressure (SBP): -11 per cents
Blood pressure [3]; p.o., 4.6 mg/kg, 60 min
  decrease in diastolic blood pressure (DBP): -13 per cents
  decrease in systolic blood pressure (SBP): -14 per cents
Blood pressure [3]; p.o., 4.6 mg/kg, 120 min
  decrease in diastolic blood pressure (DBP): -14 per cents
  decrease in systolic blood pressure (SBP): -19 per cents
Blood pressure [3]; p.o., 4.6 mg/kg, 300 min
  decrease in diastolic blood pressure (DBP): -19 per cents
  decrease in systolic blood pressure (SBP): -24 per cents
Blood pressure [4]; i.v., 0.25 mg/kg, 1 min
  decrease in diastolic blood pressure (DBP): -49 per cents
  decrease in systolic blood pressure (SBP): -37 per cents
Blood pressure [4]; i.v., 0.25 mg/kg, 5 min
  decrease in diastolic blood pressure (DBP): -50 per cents
  decrease in systolic blood pressure (SBP): -45 per cents
Blood pressure [4]; i.v., 0.25 mg/kg, 30 min
  decrease in diastolic blood pressure (DBP): -31 per cents
  decrease in systolic blood pressure (SBP): -28 per cents
Blood pressure [4]; i.v., 0.25 mg/kg, 60 min
  decrease in diastolic blood pressure (DBP): -17 per cents
  decrease in systolic blood pressure (SBP): -11 per cents
Blood pressure [4]; i.v., 0.25 mg/kg, 180 min
  decrease in diastolic blood pressure (DBP): -18 per cents
  decrease in systolic blood pressure (SBP): -8 per cents
Blood pressure [4]; i.v., 1.0 mg/kg, 1 min
  decrease in diastolic blood pressure (DBP): -58 per cents
  decrease in systolic blood pressure (SBP): -50 per cents
Blood pressure [4]; i.v., 1.0 mg/kg, 5 min
  decrease in diastolic blood pressure (DBP): -60 per cents
  decrease in systolic blood pressure (SBP): -53 per cents
Blood pressure [4]; i.v., 1.0 mg/kg, 30 min
  decrease in diastolic blood pressure (DBP): -46 per cents
  decrease in systolic blood pressure (SBP): -39 per cents
Blood pressure [4]; i.v., 1.0 mg/kg, 60 min
  decrease in diastolic blood pressure (DBP): -30 per cents
  decrease in systolic blood pressure (SBP): -29 per cents
Blood pressure [4]; i.v., 1.0 mg/kg, 180 min
  decrease in diastolic blood pressure (DBP): -23 per cents
  decrease in systolic blood pressure (SBP): -19 per cents
Blood pressure [4]; p.o., 10.0 mg/kg, 5-6 hours
  decrease in diastolic blood pressure (DBP): -29 per cents
  decrease in systolic blood pressure (SBP): -23 per cents
Blood pressure [4]; p.o., 10.0 mg/kg, 0.5 hours
  decrease in diastolic blood pressure (DBP): -30 per cents
  decrease in systolic blood pressure (SBP): -26 per cents
Blood pressure [4]; p.o., 10.0 mg/kg, 1 hours
  decrease in diastolic blood pressure (DBP): -27 per cents
  decrease in systolic blood pressure (SBP): -24 per cents
Blood pressure [4]; p.o., 10.0 mg/kg, 3 hours
  decrease in diastolic blood pressure (DBP): -26 per cents
  decrease in systolic blood pressure (SBP): -21 per cents
Blood pressure [4]; p.o., 10.0 mg/kg, 24 hours
  decrease in diastolic blood pressure (DBP): -11 per cents
  decrease in systolic blood pressure (SBP): -9 per cents
[5]; iv, intravenously
  minimal effective dose: 0.5 mg/kg
[5]; po, orally
  minimal effective dose: 5 mg/kg
[6]
  duration of action on opening pressure of the urinary bladder sphincter: longer duration of action
[6]; corresponding doses
  lowering of the opening pressure of the urinary bladder sphincter: lowered the opening pressure of the urinary bladder sphincter of rats in corresponding doses in the same extent as prazosin
Intraocular pressure
  lowering of the intraocular pressure: lowered significantly the intraocular pressure
